The results in this text go back to ChEMBL document CHEMBL4229345, “Inhibition of trypanosome alternative oxidase without its N-terminal mitochondrial targeting signal (ΔMTS-TAO) by cationic and non-cationic 4-hydroxybenzoate and 4-alkoxybenzaldehyde derivatives active against T. brucei and T. congolense” (Eur J Med Chem, 2018).

Data set [1] is described as follows: Inhibition of recombinant N-terminal His6 tagged SUMO-fused Trypanosoma brucei brucei TC221 TAO MTS deletion mutant expressed in Escherichia coli FN102 preincubated for 2 mins followed by ubiquinol-1 addition measured over 2 mins by double beam-dual wavelength UV-spectrophotometry.
Data set [2] is described as follows: Stability in mouse serum assessed as compound hydrolysis after 1 hr by LC/MS analysis. Type of data set: ADME, cell-free. Conditions: read-out: Drug degradation.
Data set [3] can be described thus: Half life in mouse serum by LC/MS analysis. Type of data set: ADME, cell-free.
Data set [4] is described as follows: Selectivity index, ratio of CC50 for HFF cells to EC50 for bloodstream trypomastigote stage of wild-type Trypanosoma brucei brucei Lister 427. The format is toxicity. Conditions: human, read-out: Ratio CC50/EC50.
Data set [5] deals with Trypanosoma brucei brucei. Description: Resistance factor, ratio of EC50 for bloodstream trypomastigote stage of Trypanosoma brucei brucei AQP triple knock out to EC50 for bloodstream trypomastigote stage of wild-type Trypanosoma brucei brucei Lister 427. Type of data set: functional.
Data set [6] in a line: Cytotoxicity against HFF cells assessed as reduction in cell viability after 30 hrs by resazurin-based assay. Conditions: human.
Data set [7] deals with Trypanosoma brucei brucei. Description: Anti-parasitic activity against bloodstream trypomastigote stage of Trypanosoma brucei brucei with AQP2/3-dd knock out after 48 hrs by resazurin-based assay. Type of data set: functional, organism-based. Background: Resazurin is reduced to fluorescent resorufin, in cell work by metabolically active cells.
Data set [8] can be described thus: Resistance factor, ratio of EC50 for bloodstream trypomastigote stage of pentamidine/diminazene/melaminophenyl arsenical resistant Trypanosoma brucei B48 to EC50 for bloodstream trypomastigote stage of wild-type Trypanosoma brucei brucei Lister 427. The format is functional.
For data set [9], the system named is Trypanosoma brucei brucei. Description: Anti-parasitic activity against bloodstream trypomastigote stage of Trypanosoma brucei brucei with AQP triple knock out after 48 hrs by resazurin-based assay. Type of data set: functional, organism-based.
For data set [10], the system named is Trypanosoma congolense. Description: Anti-parasitic activity against bloodstream form of Trypanosoma congolense IL3000 after 48 hrs by resazurin-based assay. The format is functional, organism-based. Conditions: IL3000, 48 h.
Data set [11] is described as follows: Competitive inhibition of recombinant N-terminal His6 tagged SUMO-fused Trypanosoma brucei brucei TC221 TAO MTS deletion mutant expressed in Escherichia coli FN102 preincubated for 2 mins followed by ubiquinol-1 addition measured over 2 mins by Lineweaver-Burk plot analysis.
Data set [12] concerns Trypanosoma brucei brucei. Description: Resistance factor, ratio of EC50 for bloodstream trypomastigote stage of Trypanosoma brucei brucei with AQP2/3-dd knock out to EC50 for bloodstream trypomastigote stage of wild-type Trypanosoma brucei brucei Lister 427. Type of data set: functional.
Data set [13] has as its system Trypanosoma brucei brucei. Description: Resistance factor, ratio of EC50 for bloodstream trypomastigote stage of wild-type Trypanosoma brucei brucei Lister 427 in presence of 5 mM glycerol to EC50 for bloodstream trypomastigote stage of wild-type Trypanosoma brucei brucei Lister 427. The format is functional.
The nature of data set [14]: Stability in mouse serum assessed as compound hydrolysis after 24 hrs by LC/MS analysis. The format is ADME, cell-free. The note with it: read-out: Drug degradation.
The nature of data set [15]: Selectivity index, ratio of CC50 for HFF cells to EC50 for bloodstream form of Trypanosoma congolense IL3000. The format is toxicity. Conditions: human, read-out: Ratio CC50/EC50.
Data set [16] deals with Trypanosoma brucei brucei. Description: Anti-parasitic activity against bloodstream trypomastigote stage of wild-type Trypanosoma brucei brucei Lister 427 after 48 hrs by resazurin-based assay. Type of data set: functional, organism-based. Conditions: Lister 427, 48 h.
Data set [17] deals with Trypanosoma brucei brucei. Description: Anti-parasitic activity against bloodstream trypomastigote stage of wild-type Trypanosoma brucei brucei Lister 427 after 48 hrs in presence of 5 mM glycerol by resazurin-based assay. The format is functional, organism-based. Conditions: Lister 427, 48 h.
Data set [18] deals with Trypanosoma brucei. Description: Anti-parasitic activity against bloodstream trypomastigote stage of pentamidine/diminazene/melaminophenyl arsenical resistant Trypanosoma brucei B48 after 48 hrs by resazurin-based assay. Type of data set: functional, organism-based. The note with it: B48, 48 h.
Data set [19] is described as follows: Noncompetitive inhibition of recombinant N-terminal His6 tagged SUMO-fused Trypanosoma brucei brucei TC221 TAO MTS deletion mutant expressed in Escherichia coli FN102 preincubated for 2 mins followed by ubiquinol-1 addition measured over 2 mins by Lineweaver-Burk plot analysis.
The nature of data set [20]: Selectivity index, ratio of CC50 for HEK cells to EC50 for bloodstream trypomastigote stage of wild-type Trypanosoma brucei brucei Lister 427. The format is toxicity. Conditions: human, read-out: Ratio CC50/EC50.
The nature of data set [21]: Cytotoxicity against HEK cells assessed as reduction in cell viability after 30 hrs by resazurin-based assay. Conditions: human.

What is called IC50 is the concentration at which inhibition is half-maximal. Consider `O=C(OCCCCCCCCCCCCCC[n+]1cccc2ccccc21)c1ccc(O)cc1O`, for which the 50% inhibitory concentration (IC50) in data set [1] stood at 1360 nM. Also, in [2], the metabolised at 1 h is 50%.

What is called half-life is how long it takes for the measured level to halve. Lower therefore signals fast loss. The CC50 is the concentration giving 50% cytotoxicity. One may read the EC50 as the midpoint of the concentration-response curve. The term Ki denotes a dissociation constant, usually derived from enzyme kinetics or from competition with a known ligand. In data set [3], `Cc1cc(O)ccc1C(=O)OCCCCCCCCCCCCCC[n+]1cccc2ccccc21.[Br-]` came in with a half-life of 30 min. The selectivity ratio in [4] was above 952; in data set [15], above 110. Also, the “Ratio EC50” value was found to be 0.41 in data set [5], 1.4 in data set [8], 0.47 in data set [12] and 0.69 in data set [13]. Also, the CC50 at 30 h in data set [6] was above 200000 nM. For the same compound, the EC50 amounted to 100 nM in [7]; 86 nM in data set [9]; 1820 nM in [10]; 210 nM in [16]; 145 nM in data set [17]; 300 nM in data set [18]. Moreover, the IC50 in data set [1] came out at 30 nM. The Ki in data set [11] is 52.9 nM. For the same compound, the metabolised at 24 h in data set [14] is above 99%.

With `O=C(OCCCCCCCCCCOC(=O)c1ccc(O)cc1O)c1ccc(O)cc1O`, the Ki in [19] was 34.1 nM. Besides, the selectivity ratio in data set [20] was above 8. Also, the “Ratio EC50” value was 0.14 in data set [5], 0.85 in data set [8], 0.5 in data set [12] and 0.25 in data set [13]. The concentration giving a half-maximal response (EC50) is 24600 nM in [7]; 7100 nM in data set [9]; above 100000 nM in data set [10]; 49000 nM in data set [16]; 12200 nM in data set [17]; 41600 nM in [18]. Moreover, in data set [1], the 50% inhibitory concentration (IC50) was 6.9 nM. The cytotoxic concentration (CC50) at 30 h in data set [21] is above 400000 nM.
